The melting point is the temperature of the solid-liquid transition.

Molecules are shown by their SMILES.

In one data set the test system is corn rust. Description: Greenhouse pot seedling assay, corn rust. The data set is classed as in vivo. The settings on record: for pest or weed control at 400 ppm: Zea mays, 192 h, Table 21, read-out: Biological activity in greenhouse, corn rust; for pest or weed control at 400 ppm / control of corn rust: 400 ppm; for Control (%): comparative test, Table 20.
For data set [1], the system named is cucumber downy mildew. Description: Greenhouse pot seedling assay, cucumber downy mildew. The following applies: for pest or weed control at 400 ppm: Cucumis sativus, 120 h, Table 21, read-out: Biological activity in greenhouse, cucumber downy mildew; for Control (%): comparative test, Table 18. The data set is classed as in vivo.
A further data set concerns wheat powdery mildew. Kind of data set: Greenhouse pot seedling assay, wheat powdery mildew. The data set is classed as in vivo. The settings on record: for pest or weed control at 400 ppm: Triticum aestivum, 192 h, Table 21, read-out: Biological activity in greenhouse, wheat powdery mildew; for control of wheat powdery mildew: 400 ppm.
For data set [2], the system named is cucumber downy mildew. Kind of data set: Field trial against cucumber downy mildew. The data set is classed as in vivo. The following applies: for Control (%) average: average of 3 replicates; for Control (%) I: replicate I; for Control (%) II: replicate II; for Control (%) III: replicate III. As to the method:
The trial was carried out in a greenhouse in July 2011 in […] district, Shanxi Province. Before the treatment, the cucumber plants were at the beginning of infection. The trial method was based on the National Standard of the People's Republic of China-“Pesticide-Guidelines for The Field Efficacy Trials”. […] The Area of plot was 15 m^2, random arrangement and 3 times replication. The volume was about 600 L/hm^2, and water was as the control. Efficacy calculation method is as follows: [formula] [formula]

Data set [3] has as its system rice blast. The data set is classed as cell-based. The following applies: 25 ppm.
Data set [4] relates to rice blast. It counts as in vivo. The following applies: 600 ppm, field.
In data set [5] the test system is cucumber downy mildew. Description: Persistence comparative test against cucumber downy mildew (greenhouse). The data set is classed as in vivo.

`CCc1nn(C)c(C(=O)NCCc2ccc(O)cc2)c1Cl` [VIII-139]: the pest or weed control at 400 ppm in the data set on corn rust, in the data set with cucumber downy mildew [1] (400 ppm) and with wheat powdery mildew was 0% each time.
Regarding `CCOC(=O)c1cccc(C)c1NC(=O)COc1ccc(CNC(=O)c2c(Cl)c(C)nn2C)cc1` [Compound 94], in the data set with corn rust (greenhouse), the “control of corn rust” value was determined as 100%.
Take `COCC(=O)N(c1c(C)cccc1C)C(C)C(=O)OC` (stereo not shown) [metalaxyl, reference compound]: the “Control (%)” value came out at 0% in the data set on cucumber downy mildew [1] (6.25 ppm); 7% with cucumber downy mildew [1] (12.5 ppm); 22% in the data set on cucumber downy mildew [1] (25 ppm); 29% in the data set with cucumber downy mildew [1] (50 ppm); 59% in the data set on cucumber downy mildew [1] (100 ppm).
Take `COC(=O)c1ccccc1NC(=O)C(C)Cl` (stereo not shown) [VI-56]: the melting point was 63 to 65 °C. Besides, in the data set with corn rust, the pest or weed control at 400 ppm was 30%. Besides, the pest or weed control at 400 ppm with cucumber downy mildew [1] (400 ppm) was found to be 75%. Further, the pest or weed control at 400 ppm in the data set with wheat powdery mildew amounted to 0%.
The matching figures for `COC(=O)c1ccccc1NC(=O)CCl` [VI-20]: 92 to 94 °C, 0%, 0% and 0%.
`N#Cc1c(Cl)c(Cl)c(Cl)c(C#N)c1Cl` [chlorothalonil, reference compound]: in the data set on cucumber downy mildew [2] (800 ppm), the “Control (%) average” value is recorded as 74%, the “Control (%) I” value is 68%, the “Control (%) II” value is reported as 73% and the “Control (%) III” value is on record as 81%.
As to `CCc1cc(C(=O)NCc2ccc(OCC(=O)Nc3ccccc3C(=O)NC)cc2)n(C)n1` [Compound 3], the “control of corn rust” value in the data set on corn rust is 100%. In addition, the “control of cucumber downy mildew” value is listed as 95% with cucumber downy mildew [1] (25 ppm), 100% with cucumber downy mildew [1] (50 ppm) and 100% in the data set on cucumber downy mildew [1] (400 ppm). The “inhibition ratio on spore germination of rice blast” value (“inhibition ratio” below) in the data set on rice blast [3] was found to be 100%. Further, in the data set with wheat powdery mildew, the “control of wheat powdery mildew” value came out at 100%.
Regarding `CCc1nn(C)c(C(=O)NCc2ccc(O[C@@H](C)C(=O)Nc3ccccc3C(=O)NC)cc2)c1Cl` [Compound 69], in the data set with corn rust (greenhouse), the “control of corn rust” value was determined as 100%. For the same compound, the “control of cucumber downy mildew” value in the data set on cucumber downy mildew [1] (400 ppm, greenhouse) amounted to 100%.
For `CCNC(=O)c1cccc(C)c1NC(=O)COc1ccc(CNC(=O)c2cc(C)nn2C)cc1` [Compound 177], in the data set on corn rust (greenhouse), the “control of corn rust” value stood at 100%. Besides, the “control of cucumber downy mildew” value in the data set on cucumber downy mildew [1] (25 ppm, greenhouse) is 100%; with cucumber downy mildew [1] (50 ppm, greenhouse), 100%; in the data set on cucumber downy mildew [1] (400 ppm, greenhouse), 100%. Also, the “inhibition ratio” value in the data set with rice blast [3] is reported as 100%. Further, the “control of wheat powdery mildew” value in the data set on wheat powdery mildew (greenhouse) stood at 100%.
As for `C[C@@]1(c2ccc(Oc3ccccc3)cc2)OC(=O)N(Nc2ccccc2)C1=O` (racemic) [famoxadone, reference compound], the “Control (%)” value came out at 14% in the data set with cucumber downy mildew [1] (6.25 ppm); 22% with cucumber downy mildew [1] (12.5 ppm); 51% in the data set on cucumber downy mildew [1] (25 ppm); 74% in the data set with cucumber downy mildew [1] (50 ppm); 81% in the data set with cucumber downy mildew [1] (100 ppm).
Take `CNC(=O)c1ccccc1NC(=O)CCl` [VI-1, 2-(2-chloroacetamido)-N-methylbenzamide]: the melting point was in the range of 155 to 157 °C. The pest or weed control at 400 ppm in the data set with corn rust was 0%. Besides, in the data set on cucumber downy mildew [1] (400 ppm), the pest or weed control at 400 ppm was 0%. Also, the pest or weed control at 400 ppm in the data set with wheat powdery mildew came to 0%.
For `Cc1nn(C)c(C(=O)NCc2ccc(OCC(=O)Nc3ccccc3C(N)=O)cc2)c1Cl` [Compound 156], in the data set with corn rust (greenhouse), the “control of corn rust” value was 100%.
As for `CCOC(=O)c1ccccc1NC(=O)COc1ccc(CNC(=O)c2c(Cl)c(C)nn2C)cc1` [Compound 95], the “control of corn rust” value in the data set on corn rust (greenhouse) was determined as 100%. Further, the “inhibition ratio” value with rice blast [3] was determined as 100%.
For the compound `O=[N+]([O-])c1cc(C(F)(F)F)c(Cl)c([N+](=O)[O-])c1Nc1ncc(C(F)(F)F)cc1Cl` [fluazinam, reference compound], the “Control (%) average” value with rice blast [4] (average of 3 replicates) is listed as 75%. Also, the “Control (%) I” value in the data set with rice blast [4] (replicate I) is reported as 70%. Besides, in the data set with rice blast [4] (replicate II), the “Control (%) II” value amounted to 75%. In the data set on rice blast [4] (replicate III), the “Control (%) III” value is 80%.
In turn, `CNC(=O)c1ccccc1NC(=O)COc1ccc(CN)cc1` [II-1, 2-(2-(4-(aminomethyl)phenoxy)acetamido)-N-methylbenzamide] showed a melting point of 109 to 110 °C. For the same compound, the pest or weed control at 400 ppm in the data set with corn rust was found to be 0%. Further, in the data set on cucumber downy mildew [1] (400 ppm), the pest or weed control at 400 ppm is 0%. Besides, the pest or weed control at 400 ppm in the data set with wheat powdery mildew stood at 100%.
`CNC(=O)c1ccccc1NC(=O)COc1ccc(CNC(=O)c2cc(C)nn2C)cc1` [Compound 2]: the “control of corn rust” value in the data set with corn rust (greenhouse) was found to be 100%. The “control of cucumber downy mildew” value with cucumber downy mildew [1] (25 ppm, greenhouse) is 75%; in the data set with cucumber downy mildew [1] (50 ppm, greenhouse) it was 100%; in the data set on cucumber downy mildew [1] (400 ppm, greenhouse), 100%. Also, the “inhibition ratio” value in the data set on rice blast [3] was determined as 100%. In the data set with wheat powdery mildew (greenhouse), the “control of wheat powdery mildew” value was determined as 100%.
On to `Fc1ccc([C@]2(Cn3cncn3)O[C@H]2c2ccccc2Cl)cc1` (racemic) [epoxiconazole, reference compound], for which the “Control (%)” value in the data set on corn rust (3.13 ppm) came to 40%; in the data set with corn rust (6.25 ppm), 75%; in the data set on corn rust (12.5 ppm), 90%; with corn rust (25 ppm) it was 95%; in the data set on corn rust (50 ppm), 100%; in the data set on corn rust (100 ppm), 100%.
For the compound `COc1ccc(C(=CC(=O)N2CCOCC2)c2ccc(Cl)cc2)cc1OC` [dimethomorph, reference compound], the “Control (%)” value worked out at 0% with cucumber downy mildew [5] (25 ppm, inoculation 3 days after treatment); 0% with cucumber downy mildew [5] (25 ppm, inoculation 7 days after treatment); 30% in the data set with cucumber downy mildew [5] (50 ppm, inoculation 3 days after treatment); 0% with cucumber downy mildew [5] (50 ppm, inoculation 7 days after treatment); 44% in the data set on cucumber downy mildew [5] (100 ppm, inoculation 3 days after treatment); 0% with cucumber downy mildew [5] (100 ppm, inoculation 7 days after treatment). Moreover, the “Control (%)” value is given as 74% with cucumber downy mildew [5] (200 ppm, inoculation 3 days after treatment); 44% in the data set with cucumber downy mildew [5] (200 ppm, inoculation 7 days after treatment); 100% in the data set with cucumber downy mildew [5] (400 ppm, inoculation 3 days after treatment); 74% in the data set on cucumber downy mildew [5] (400 ppm, inoculation 7 days after treatment); 29% in the data set on cucumber downy mildew [1] (6.25 ppm); 74% in the data set with cucumber downy mildew [1] (12.5 ppm). Besides, the results for the “Control (%)” value in the data set on cucumber downy mildew [1] (25 ppm), in the data set with cucumber downy mildew [1] (50 ppm) and in the data set with cucumber downy mildew [1] (100 ppm) were 85%, 88% and 100%, respectively. In addition, the “Control (%) average” value in the data set on cucumber downy mildew [2] (200 ppm) turned out to be 53%. Moreover, the “Control (%) I” value in the data set with cucumber downy mildew [2] (200 ppm) turned out to be 44%. For the same compound, in the data set on cucumber downy mildew [2] (200 ppm), the “Control (%) II” value stood at 52%. Further, the “Control (%) III” value in the data set with cucumber downy mildew [2] (200 ppm) turned out to be 63%.
`CCOC(=O)c1ccccc1NC(=O)COc1ccc(CNC(=O)c2c(Cl)c(CC)nn2C)cc1` [Compound 99]: the “control of corn rust” value with corn rust (greenhouse) was determined as 100%.
As for `CCCc1nn(C)c(C(=O)NCc2ccc(OCC(=O)Nc3ccccc3C(=O)NC)cc2)c1Cl` [Compound 17], in the data set with corn rust (greenhouse), the “control of corn rust” value is given as 100%.
As for `CCc1nn(C)c(C(=O)NCc2ccc(O[C@H](C)C(=O)Nc3ccccc3C(=O)NC)cc2)c1Cl` [Compound 66], the “control of corn rust” value in the data set on corn rust (greenhouse) worked out at 100%. In the data set with cucumber downy mildew [1] (400 ppm, greenhouse), the “control of cucumber downy mildew” value was 100%.
For `Cc1nn(C)c(C(=O)NCCc2ccc(O)cc2)c1Cl` [VIII-138], the pest or weed control at 400 ppm in the data set on corn rust, with cucumber downy mildew [1] (400 ppm) and in the data set on wheat powdery mildew was 0% each time.
With `Cc1nn(C)c(C(=O)NCc2ccc(O)cc2)c1Cl` [VIII-1], the results for the pest or weed control at 400 ppm in the data set on corn rust, in the data set with cucumber downy mildew [1] (400 ppm) and with wheat powdery mildew were 50%, 95% and 0%, respectively.
As to `CNC(=O)c1ccccc1NC(=O)C(C)Cl` (stereo not shown) [VI-54], the melting point was in the range of 121 to 122 °C. Besides, the pest or weed control at 400 ppm in the data set on corn rust turned out to be 0%. The pest or weed control at 400 ppm with cucumber downy mildew [1] (400 ppm) turned out to be 30%. In addition, the pest or weed control at 400 ppm with wheat powdery mildew is 0%.
